{
  "source": "PubChem BioAssay (NCI)",
  "system": "MDA-MB-468 breast",
  "test": "NCI-60 cell line screen, 48 h",
  "note": "“And” between values parts separate entries of the source, which are not always exact repeats. Equal values may be shown once.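 Protocol summary: plate cells (96-well), add compound at 5 concentrations, incubate 48 h, interpolate endpoints linearly. Abbreviation: GI50, concentration required for 50% inhibition of growth. TGI is the concentration that stops growth completely.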",
  "data": [
    {"smiles": "Nc1ccccc1NC(=O)c1ccc(CNC(=O)OCc2cccnc2)cc1", "values": [
      {"measurement": "GI50", "value": 0.412, "unit": "µM"},
      {"measurement": "TGI", "value": 2.05, "unit": "µM"}
    ]},
    {"smiles": "C#C[C@@]1(O)[C@@H](CO)O[C@@H](n2cc(Br)c3c(N)ncnc32)[C@@H]1O", "values": [
      {"measurement": "GI50", "value": 0.115, "unit": "µM"},
      {"measurement": "TGI", "value": 0.352, "unit": "µM"}
    ]},
    {"smiles": "Cc1ccc(-c2nc3nc(-c4ccc(Br)cc4)nc(N4CCCNCC4)c3o2)cc1", "values": [
      {"measurement": "GI50", "value": 3.98, "unit": "µM"},
      {"measurement": "TGI", "value": 15.9, "unit": "µM"}
    ]},
    {"smiles": "CCCC(=O)OCC1OC(n2cnc3c(=S)nc(N)[nH]c32)C(OC(=O)CCC)C1OC(=O)CCC", "note": "(stereo not given)", "values": [
      {"measurement": "GI50", "value": 0.332, "unit": "µM"},
      {"measurement": "TGI", "value": 2.67, "unit": "µM"}
    ]},
    {"smiles": "COc1ccc(OC)c(/C=C/C(=O)N/N=C/c2ccccc2)c1", "values": [
      {"measurement": "GI50", "value": 1.96, "unit": "µM"},
      {"measurement": "TGI", "value": 6.47, "unit": "µM"}
    ]},
    {"smiles": "O=C1CCc2c(Oc3ccc4c(c3)[C@H]3[C@@H](O4)[C@@H]3c3nc4ccc(C(F)(F)F)cc4[nH]3)ccnc2N1", "values": [
      {"measurement": "GI50", "value": 1.74, "unit": "µM"},
      {"measurement": "TGI", "value": 7.13, "unit": "µM"}
    ]},
    {"smiles": "C/C=C/C1=CN2C(=O)c3cc(OC4OC(C)C(NC)C(C)(O)C4O)c(C)cc3N=C[C@@H]2C1", "note": "(stereo not given in full)", "values": [
      {"measurement": "GI50", "value": 0.0107, "unit": "µM"},
      {"measurement": "TGI", "value": 0.0282, "unit": "µM"}
    ]},
    {"smiles": "CCN(Cc1ccccn1)c1ccc(CO)c(Cl)c1", "values": [
      {"measurement": "GI50", "value": 0.127, "unit": "µM"},
      {"measurement": "TGI", "value": 0.331, "unit": "µM"}
    ]},
    {"smiles": "COC(=O)c1c(C)c2n(c1C)C(=O)C(c1ccccc1)=C2", "values": [
      {"measurement": "GI50", "value": 4.88, "unit": "µM"},
      {"measurement": "TGI", "value": "> 72.8", "unit": "µM"}
    ]},
    {"smiles": "O=C1CCC/C=C\\C[C@H]2C=CC(=O)/C2=C/C[C@H](CCc2cccc(C(F)(F)F)c2)O1", "values": [
      {"measurement": "GI50", "value": 1.69, "unit": "µM"},
      {"measurement": "TGI", "value": 3.71, "unit": "µM"}
    ]},
    {"smiles": "O=S(=O)(Nc1ccc(Cl)c(F)c1)c1ccc(-c2cnc(C3CC3)o2)cc1", "values": [
      {"measurement": "GI50", "value": 0.187, "unit": "µM"},
      {"measurement": "TGI", "value": 0.998, "unit": "µM"}
    ]},
    {"smiles": "O=C(Nc1ccc(F)cc1F)c1cc(F)ccc1O", "values": [
      {"measurement": "GI50", "value": 2.6, "unit": "µM"},
      {"measurement": "TGI", "value": 7.88, "unit": "µM"}
    ]},
    {"smiles": "COc1cccc(/C=C2\\COc3ccc(O)c(O)c3C2=O)c1", "values": [
      {"measurement": "GI50", "value": 1.15, "unit": "µM"},
      {"measurement": "TGI", "value": 3.15, "unit": "µM"}
    ]},
    {"smiles": "CN1CCN(Cc2ccc(NC(=O)c3cncc(C#Cc4cnc5ccc(O[C@H]6CCOC6)nn45)c3)cc2C(F)(F)F)CC1", "values": [
      {"measurement": "GI50", "value": 0.75, "unit": "µM"},
      {"measurement": "TGI", "value": 1.69, "unit": "µM"}
    ]},
    {"smiles": "COc1ccc(C(=O)c2cc(OC)c(OC)c(OC)c2)cc1OC(=O)C(Cl)(Cl)Cl", "values": [
      {"measurement": "GI50", "value": 0.542, "unit": "µM"}
    ]},
    {"smiles": "O=c1nc(Nc2ccc([N+](=O)[O-])cc2O)sc2ccccc12", "values": [
      {"measurement": "GI50", "value": 0.34, "unit": "µM"},
      {"measurement": "TGI", "value": 1.21, "unit": "µM"}
    ]},
    {"smiles": "COc1cc(-c2nn(-c3ccc(NC(=O)NCCNS(=O)(=O)c4ccc(F)cc4)cc3)cc2-c2ccncc2)ccc1Cl", "values": [
      {"measurement": "GI50", "value": 0.323, "unit": "µM"},
      {"measurement": "TGI", "value": 1.28, "unit": "µM"}
    ]},
    {"smiles": "C=CC(C)c1cccc(C=O)c1O", "note": "(stereo not given)", "values": [
      {"measurement": "GI50", "value": 51.6, "unit": "µM"},
      {"measurement": "TGI", "value": "> 100", "unit": "µM"}
    ]},
    {"smiles": "Cc1ccc2cc3c(cc(C)c4ccccc43)c3c2c1CC3", "values": [
      {"measurement": "GI50", "value": "> 100", "unit": "µM"},
      {"measurement": "TGI", "value": "> 100", "unit": "µM"}
    ]},
    {"smiles": "ClC(Cl)c1nc(-c2ccccc2)n2nc(-c3ccccc3)cc2n1", "values": [
      {"measurement": "GI50", "value": 0.287, "unit": "µM"},
      {"measurement": "TGI", "value": 1.25, "unit": "µM"}
    ]},
    {"smiles": "CC(C)C[C@@H](NC(=O)[C@@H](Cc1ccccc1)NC(=O)c1cnccn1)B1Oc2ccc(C[C@H](NC(=O)[C@H](Cc3ccc4c(c3)OB([C@@H](CC(C)C)NC(=O)[C@@H](Cc3ccccc3)NC(=O)c3cnccn3)O4)NC(=O)[C@@H](N)CC3CCC4OB([C@@H](CC(C)C)NC(=O)[C@@H](CC5CCCCC5)NC(=O)C5CNCCN5)OC4C3)C(=O)NCCCC[C@@H]3NC(=O)[C@@H](Cc4ccccc4)NC(=O)[C@H](CC(=O)O)NC(=O)CNC(=O)[C@H](CCCNC(=N)N)NC3=O)cc2O1", "note": "(stereo not given in full)", "values": [
      {"measurement": "GI50", "value": "0.00272 µM and < 0.0025 µM"},
      {"measurement": "TGI", "value": "0.00722 µM and < 0.0025 µM"}
    ]},
    {"smiles": "NC(=O)c1c(Br)n(C2OC(CO)C(O)C2O)c2ncnc(N)c12", "note": "(stereo not given)", "values": [
      {"measurement": "GI50", "value": 0.437, "unit": "µM"},
      {"measurement": "TGI", "value": 2.36, "unit": "µM"}
    ]},
    {"smiles": "COc1ccc2c(c1)O/C(=C\\c1ncc([N+](=O)[O-])n1C)C2=O", "values": [
      {"measurement": "GI50", "value": 1.33, "unit": "µM"},
      {"measurement": "TGI", "value": 3.72, "unit": "µM"}
    ]}
  ]
}
